Measurements published in publication PMC11847324, “A communication hub for phosphoregulation of kinetochore-microtubule attachment” (Current biology : CB, 2024).

Tests used:
Ndc80c^dwarf [1] = experiment: Fluorescence polarization competition, reporter Bodipy-FL Mps1(137–171); type: binding, S. cerevisiae
Source text: We measured by fluorescence polarization the affinity of Ndc80^dwarf, a shortened version of Ndc80c[51], for a peptide comprising Mps1 residues 137–171, plus a C-terminal cysteine for labeling. We labeled the peptide with the Bodipy fluorophore and determined fluorescence anisotropy as a function of Ndc80c^dwarf concentration (Figure 3A). We then used unlabeled wild-type and mutant peptides in a competition format, at a fixed Ndc80c^dwarf concentration (Figures 3B,C). The mutant peptides corresponded to mutations characterized in one of the accompanying papers. […] Mutating either the basic residues or the hydrophobic residues in the first part of the consensus motif or the conserved arginine at the end of the second part lowered affinity (raised the Ki) by roughly two logs; mutating both the final arginine and the hydrophobic residues eliminated any detectable competition.
(§1) Figure 3. Fluorescence polarization measurements of Ndc80c^dwarf binding peptides from the N-terminal extensions of Mps1 and Ipl1. (A) Polarization of fluorescence from 20 nM Bodipy-FL Mps1(137–171) (Mps1 residues 137–171 plus a C-terminal cysteine modified with Bodipy-FL -- see Methods) and Bodipy-FL Ipl1 (26–39;45–59) as a function of Ndc80c^dwarf concentration. (B) Competition binding experiment: unlabeled competitor peptides (see figure annotation) were added in twofold serial dilutions to Bodipy-FL Mps1(137–171) and Ndc80c^dwarf at final concentrations of 20 nM and 500 nM respectively. Loss of polarization indicates displacement of bound Bodipy-FL Mps1(137–171) by the competitor. (C) As in (B), with competitor Mps1(137–171) peptides containing mutations that reduce affinity for Ndc80c[40]. (D) Polarization of fluorescence from 20 nM Bodipy-FL Mps1(137–171) as a function of the concentration of Ndc80c^dwarf bearing mutations in Nuf2 that interfere with its Mps1 interaction in cells. (E) As in (B), but with 20 nM Bodipy-FL Ipl1 (26–39;45–59) as the fluorescent reporter and 27μM Ndc80c^dwarf. […] For the Ipl1 peptide, the second copy of the motif, not used for the fluorescence polarization experiments, is shown in the bottom line.
Mps1 (137–171), Ipl1 (26–39;45–59), and Dam1 (254–270;290–305) peptides with added C-terminal cysteines, were synthesized by the Tufts University Core Facility. […] Fluorescence polarization was measured at 25°C with an Envision plate reader (Perkin Elmer) equipped with a filter set optimized for fluorescence polarization of FITC, which has the same absorption and emission spectra as those of Bodipy FL. […] Fluorescence polarization was measured in triplicate. […] An equal volume of a buffer-matched solution containing 40 nM Bodipy-FL labelled peptide and 1 μM Ndc80c^dwarf was added to each of the dilutions, and fluorescence polarization was measured in triplicate. […]

Ndc80c^dwarf [2] = experiment: Fluorescence polarization competition, reporter Bodipy-FL Ipl1 (26–39;45–59); type: binding, S. cerevisiae; settings: 20 nM Bodipy-FL Ipl1 (26–39;45–59), 27μM Ndc80c^dwarf; competitor in twofold serial dilutions; 25°C; Figure 3E
Protocol: as §1, with “(B) Competition binding experiment: unlabeled competitor peptides (see figure annotation) were added in twofold serial dilutions to Bodipy-FL Mps1(137–171) and Ndc80c^dwarf at final concentrations of 20 nM and 500 nM respectively.” left out, “cells.” for “cells. (E) As in (B), but with 20 nM Bodipy-FL Ipl1 (26–39;45–59) as the fluorescent reporter and 27μM Ndc80c^dwarf.”
We measured the Ipl1 peptide affinity, both directly (Figure 3A) and by measuring displacement of a fluorophore-labeled Mps1 peptide (Figure 3B) as a function of increasing concentrations of unlabeled Ipl1 peptide. […]
Mps1 (137–171), Ipl1 (26–39;45–59), and Dam1 (254–270;290–305) peptides with added C-terminal cysteines, were synthesized by the Tufts University Core Facility. […] Fluorescence polarization was measured in triplicate. […]

Sequence of Ndc80c^dwarf (P33895 1-150): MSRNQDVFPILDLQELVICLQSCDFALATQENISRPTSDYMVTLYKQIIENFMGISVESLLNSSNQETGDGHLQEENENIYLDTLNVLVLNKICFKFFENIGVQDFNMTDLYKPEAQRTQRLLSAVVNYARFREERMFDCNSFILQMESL
Sequence of Ndc80c^dwarf (P40460 115-310, further chain): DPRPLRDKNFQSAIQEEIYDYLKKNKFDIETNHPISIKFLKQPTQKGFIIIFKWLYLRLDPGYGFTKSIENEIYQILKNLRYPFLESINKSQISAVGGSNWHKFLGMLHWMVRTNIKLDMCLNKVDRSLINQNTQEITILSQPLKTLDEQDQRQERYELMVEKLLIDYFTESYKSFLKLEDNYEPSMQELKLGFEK

RQNMKEDITAKYAERRSKRFLISNRTTKLGPAKRAC [Mps1 (137–171), peptide comprising Mps1 residues 137–171, plus a C-terminal cysteine for labeling]
displacement of bound Bodipy-FL Mps1(137–171) by unlabeled competitor peptide (Ndc80c^dwarf [1]; 20 nM Bodipy-FL Mps1(137–171), 500 nM Ndc80c^dwarf, competitor in twofold serial dilutions, 20 mM Tris pH 7.2, 100 mM NaCl, 2 mM TCEP, 25°C, triplicate, Figures 3B,C): displaced the fluorescent Mps1 peptide, at a concentration consistent with the affinity measured by direct titration
relative affinity of peptides for Ndc80c^dwarf (comparison in words) (Ndc80c^dwarf [1]; direct titration (Figure 3A) and competition with Bodipy-FL Mps1(137–171) (Figure 3B)): nearly the same
displacement of Bodipy-FL Ipl1 (26–39;45–59) by unlabeled competitor peptide (Ndc80c^dwarf [2]): competed strongly
